Reference: patent US10201532B2, “Compounds and their use” (ALLECRA THERAPEUTICS GMBH, priority 2010, dated 2019)

What was measured:
[1] = system: K. pneumoniae NCTC 13438 (KPC3); assay: Synergistic broth micro-dilution MIC; format: cell-based, Klebsiella pneumoniae; settings: BLI at 4 μg/mL
[2] = system: K. pneumoniae UMM3 (KPC2); assay: Synergistic broth micro-dilution MIC; format: cell-based, Klebsiella pneumoniae; settings: BLI at 4 μg/mL
[3] = system: E. cloacae 01 MGH 049 (KPC2, AmpC); assay: Synergistic broth micro-dilution MIC; format: cell-based; settings: BLI at 4 μg/mL
E. coli BAA-200 (SHV-4) = assay: MIC of Piperacillin with inhibitor, ESBL isolates; format: cell-based, Escherichia coli
[4] = system: KPC-2 producing K. pneumoniae (ATCC BAA-1705); assay: Synergistic broth micro-dilution MIC (checkerboard); format: cell-based, Klebsiella pneumoniae; settings: for MIC of Imipenem in combination with BLI: ATCC BAA-1705; for Activity with imipenem against the KPC (2 & 3) producing strains, in words: summary of Table 2, all five strains
[5] = system: K. pneumoniae 700603 (SHV-18); assay: MIC of Piperacillin with inhibitor, ESBL isolates; format: cell-based, Klebsiella pneumoniae
E. coli Ecoli233 (KPC3) = assay: Synergistic broth micro-dilution MIC; format: cell-based, Escherichia coli
E. coli BAA-201 (TEM-3) = assay: MIC of Piperacillin with inhibitor, ESBL isolates; format: cell-based
E. coli BAA-199 (SHV-3) = assay: MIC of Piperacillin with inhibitor, ESBL isolates; format: cell-based, Escherichia coli
[6] = system: P. mirabilis BAA-663 (TEM-89); assay: MIC of Piperacillin with inhibitor, ESBL isolates; format: cell-based
E. coli BAA-197 (TEM-12) = assay: MIC of Piperacillin with inhibitor, ESBL isolates; format: cell-based, Escherichia coli
E. coli BAA-198 (TEM-26) = assay: MIC of Piperacillin with inhibitor, ESBL isolates; format: cell-based, Escherichia coli

Row | Compound | MIC of Imipenem in combination with BLI [1] [µg/mL] | MIC of Imipenem in combination with BLI [2] [µg/mL] | MIC of Imipenem in combination with BLI [3] [µg/mL] | MIC of Piperacillin with inhibitor (E. coli BAA-200 (SHV-4); inhibitor at 1 μg/mL) [µg/mL] | MIC of Piperacillin with inhibitor (E. coli BAA-200 (SHV-4); inhibitor at 2 μg/mL) [µg/mL] | MIC of Piperacillin with inhibitor (E. coli BAA-200 (SHV-4); inhibitor at 4 μg/mL) [µg/mL] | MIC of Imipenem in combination with BLI ([4]; BLI at 4 μg/mL) [µg/mL] | MIC of Imipenem in combination with BLI ([4]; BLI at 16 μg/mL) [µg/mL] | Activity with imipenem against the KPC (2 & 3) producing strains, in words [4] | MIC of Piperacillin with inhibitor ([5]; inhibitor at 1 μg/mL) [µg/mL] | MIC of Piperacillin with inhibitor ([5]; inhibitor at 2 μg/mL) [µg/mL] | MIC of Piperacillin with inhibitor ([5]; inhibitor at 4 μg/mL) [µg/mL] | MIC of Imipenem in combination with BLI (E. coli Ecoli233 (KPC3); BLI at 4 μg/mL) [µg/mL] | MIC of Imipenem in combination with BLI (E. coli Ecoli233 (KPC3); BLI at 16 μg/mL) [µg/mL] | MIC of Piperacillin with inhibitor (E. coli BAA-201 (TEM-3); inhibitor at 1 μg/mL) [µg/mL] | MIC of Piperacillin with inhibitor (E. coli BAA-201 (TEM-3); inhibitor at 2 μg/mL) [µg/mL] | MIC of Piperacillin with inhibitor (E. coli BAA-201 (TEM-3); inhibitor at 4 μg/mL) [µg/mL] | MIC of Piperacillin with inhibitor (E. coli BAA-199 (SHV-3); inhibitor at 1 μg/mL) [µg/mL] | MIC of Piperacillin with inhibitor (E. coli BAA-199 (SHV-3); inhibitor at 2 μg/mL) [µg/mL] | MIC of Piperacillin with inhibitor (E. coli BAA-199 (SHV-3); inhibitor at 4 μg/mL) [µg/mL] | further results
1 | C[n+]1ccn(C[C@@]2(C)[C@H](C(=O)[O-])N3C(=O)C[C@H]3S2(=O)=O)c1 [Compound-12, (2S,3S,5R)-3-Methyl-3-(3-methyl-imidazol-3-ium-1-ylmethyl)-4,4,7-trioxo-4-thia-1-azabicyclo[3.2.0]heptane-2-carboxylate] | 64 | 2 | 8 | 32 | 8 | 4 | 4 | 4 | improved activity | 8 | 16 | 8 | 4 | 1 | 2 | 4 | 4 | >128 | >128 | 2 | MIC of Piperacillin with inhibitor ([6]; inhibitor at 1 μg/mL): 8 µg/mL; MIC of Piperacillin with inhibitor ([6]; inhibitor at 2 μg/mL): 16 µg/mL; MIC of Piperacillin with inhibitor ([6]; inhibitor at 4 μg/mL): >128 µg/mL; MIC of Piperacillin with inhibitor (E. coli BAA-197 (TEM-12); inhibitor at 1 μg/mL): 4 µg/mL; MIC of Piperacillin with inhibitor (E. coli BAA-197 (TEM-12); inhibitor at 2 μg/mL): 4 µg/mL; MIC of Piperacillin with inhibitor (E. coli BAA-197 (TEM-12); inhibitor at 4 μg/mL): 4 µg/mL; MIC of Piperacillin with inhibitor (E. coli BAA-198 (TEM-26); inhibitor at 1 μg/mL): 4 µg/mL; MIC of Piperacillin with inhibitor (E. coli BAA-198 (TEM-26); inhibitor at 2 μg/mL): 4 µg/mL; MIC of Piperacillin with inhibitor (E. coli BAA-198 (TEM-26); inhibitor at 4 μg/mL): 4 µg/mL
2 | C[C@]1(Cn2ccnc2)[C@H](C(=O)O)N2C(=O)C[C@H]2S1(=O)=O [Compound-M, (2S,3S,5R)-3-(imidazol-1-ylmethyl)-3-methyl-4,4,7-trioxo-4-thia-1-aza-bicyclo[3.2.0]heptane-2-carboxylic acid] | 64 | 8 | 8 | >128 | >128 | >128 | 8 | 8 | only moderately active | 16 | 32 | 16 | 16 | 16 | 4 | 4 | 4 | >128 | >128 | >128 | MIC of Piperacillin with inhibitor ([6]; inhibitor at 1 μg/mL): 64 µg/mL; MIC of Piperacillin with inhibitor ([6]; inhibitor at 2 μg/mL): >128 µg/mL; MIC of Piperacillin with inhibitor ([6]; inhibitor at 4 μg/mL): >128 µg/mL; MIC of Piperacillin with inhibitor (E. coli BAA-197 (TEM-12); inhibitor at 1 μg/mL): 4 µg/mL; MIC of Piperacillin with inhibitor (E. coli BAA-197 (TEM-12); inhibitor at 2 μg/mL): 8 µg/mL; MIC of Piperacillin with inhibitor (E. coli BAA-197 (TEM-12); inhibitor at 4 μg/mL): 4 µg/mL; MIC of Piperacillin with inhibitor (E. coli BAA-198 (TEM-26); inhibitor at 1 μg/mL): 4 µg/mL; MIC of Piperacillin with inhibitor (E. coli BAA-198 (TEM-26); inhibitor at 2 μg/mL): 4 µg/mL; MIC of Piperacillin with inhibitor (E. coli BAA-198 (TEM-26); inhibitor at 4 μg/mL): 4 µg/mL
